Measured values taken from patent US20080305519A1, “Biochemical method for specific protein labeling” (priority 2006, published 2008).

How the values were obtained:
[1] = test system: semi-purified tubulin/parkin complex; experiment: Biotin Tag Conjugation of Tubulin/Parkin Complex; type: biochemical, rat; settings: for labeling of tubulin in tubulin/parkin complex (FIG. 8): FIG. 8 lanes 3 and 6; for biotin labeling efficiency of parkin-mediated tubulin modification versus recognition sequence: FIG. 2b, tags 1-6 compared
Procedure: A total of 4 μg semi-purified tubulin/parkin complex and varying concentrations of the biotin tag was incubated at 37° C. for 15 min in 10 μL buffers of 50 mM Tris, 50 mM NaCl, 10 mM MgCl2, 10 μM ATP, pH 7.6. For DTT reduction, 1 μL of 6M DTT was added and the solution was incubated at r.t. for additional 30 min. Reactions were terminated by the additions of 2 μL 6×SDS-PAGE sample buffer containing 100 mM DTT and the mixtures were boiled at 95° C. for 5 min. The biotin-labeled substrates were resolved from the free biotin tags with 8-16% Tris-Glycine SDS-PAGE gel, transferred onto the PVDF membrane using a semi-dry protein transfer apparatus, and detected using the VECTASTAIN ABC-AmP detection system following the manufacturer's protocol. The intensities of protein bands are quantified with the ImageJ program (http://rsb.info.nih.gov/ij/) following the program manual.

[2] = target: T1, UbCH7 (E2), human recombinant (Homo sapiens, UniProt P68036); experiment: E2-Biotin Tag Conjugation Assay; type: biochemical
T1 construct: purchased Boston Biochem E2-640
Procedure: The UbCH7 enzyme was diluted with a buffer of 50 mM HEPES, 50 mM NaCl, 10% glycerol, pH 7.6 to derive the 10 μM stocks. […] Reactions were terminated by the additions of 2 μL 6× non-reducing bromophenol-absent SDS-PAGE sample buffer and the mixtures were boiled at 85° C. for 2 min. The biotin-labeled […] were resolved from the free biotin tags with 8-16% Tris-Glycine SDS-PAGE gel, transferred onto the PVDF membrane using a semi-dry protein transfer apparatus, and detected using the VECTASTAIN ABC-AmP detection system following the manufacturer's protocol.

[3] = test system: Fraction II, rabbit reticulocyte; experiment: Fraction II - Biotin Tag Conjugation Assay; type: biochemical; settings: ubiquitin-free reticulocyte fraction II containing E1, E2, E3 activities
Procedure: The fraction II from rabbit reticulocyte lysates was cleaned with ImmunoPure immobilized streptavidin beads from Pierce (Rockford, Ill.) to remove non-specific streptavidin-binding proteins following the manufacturer's instruction. An aliquot (11 μg) was then incubated with various amounts of biotin tag in 10 μL reaction buffer (100 mM Tris, 3 mM DTT, 5 mM MgCl2, 2 mM ATP, pH 7.6) at 37° C. for 5 min. The reactions were terminated by adding 2 μL 6×SDS-PAGE sample buffer and the mixtures were boiled at 85° C. for 2 min. The biotin-labeled substrates were resolved from the free biotin tags with 8-16% Tris-Glycine SDS-PAGE gel, transferred onto the PVDF membrane using a semi-dry protein transfer apparatus, and detected using the VECTASTAIN ABC-AmP detection system following the manufacturer's protocol.

[4] = target: T2, ubiquitin activating enzyme (E1), rabbit (Oryctolagus cuniculus, UniProt Q29504); experiment: E1-Biotin Tag Conjugation Assay; type: biochemical
T2 construct: purchased Boston Biochem E-302
T2 sequence (Q29504 1-1058): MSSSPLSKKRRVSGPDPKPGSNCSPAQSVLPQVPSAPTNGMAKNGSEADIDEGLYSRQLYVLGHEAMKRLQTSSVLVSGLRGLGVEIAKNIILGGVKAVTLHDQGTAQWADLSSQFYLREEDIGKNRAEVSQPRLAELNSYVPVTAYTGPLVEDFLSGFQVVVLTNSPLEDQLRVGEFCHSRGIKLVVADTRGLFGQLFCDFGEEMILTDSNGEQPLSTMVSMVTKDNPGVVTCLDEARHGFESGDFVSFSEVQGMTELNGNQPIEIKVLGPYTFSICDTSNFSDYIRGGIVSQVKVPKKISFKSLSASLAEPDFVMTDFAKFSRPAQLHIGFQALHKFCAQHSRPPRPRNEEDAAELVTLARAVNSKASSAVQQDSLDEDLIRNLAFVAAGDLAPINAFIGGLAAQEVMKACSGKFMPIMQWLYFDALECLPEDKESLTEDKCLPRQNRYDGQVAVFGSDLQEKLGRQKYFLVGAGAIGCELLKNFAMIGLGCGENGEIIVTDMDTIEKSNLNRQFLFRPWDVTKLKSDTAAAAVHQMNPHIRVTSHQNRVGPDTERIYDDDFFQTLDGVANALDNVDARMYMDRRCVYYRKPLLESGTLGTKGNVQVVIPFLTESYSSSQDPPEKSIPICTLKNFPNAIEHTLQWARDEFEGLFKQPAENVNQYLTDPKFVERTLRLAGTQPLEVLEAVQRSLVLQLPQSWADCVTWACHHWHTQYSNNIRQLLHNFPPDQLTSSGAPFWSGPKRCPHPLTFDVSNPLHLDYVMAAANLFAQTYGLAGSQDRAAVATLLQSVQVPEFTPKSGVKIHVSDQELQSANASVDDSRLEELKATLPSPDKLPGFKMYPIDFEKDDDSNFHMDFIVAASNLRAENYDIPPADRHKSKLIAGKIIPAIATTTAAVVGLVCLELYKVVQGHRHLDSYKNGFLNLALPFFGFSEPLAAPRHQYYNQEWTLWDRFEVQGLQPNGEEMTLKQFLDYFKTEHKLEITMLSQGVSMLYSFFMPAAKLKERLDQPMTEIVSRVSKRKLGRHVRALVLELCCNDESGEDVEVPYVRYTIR
Procedure: The E1 enzyme was diluted with 50 mM HEPES buffer, pH 7.6 to derive the 0.45 μM stocks. A total of 90 nM rabbit E1 and varying concentrations of tag 1 was incubated at 37° C. for 5 min in 10 μL buffers of 50 mM Tris, 50 mM NaCl, 10 mM MgCl2, 10 μM ATP, pH 7.6. The reactions were terminated by the additions of 2 μL 6× bromophenol-absent SDS sample buffer and the mixtures were boiled at 85° C. for 2 min. The biotin-labeled E1 thioesters were resolved from the free biotin tags with 8-16% Tris-Glycine SDS-PAGE gel, transferred onto the PVDF membrane using a semi-dry protein transfer apparatus, and detected using the VECTASTAIN ABC-AmP detection system following the manufacturer's protocol. Briefly, the membrane was washed three times for 4 min each in 10 mL 1× casein solution at r.t. with gentle shaking, and then incubated in the 10 mL 1× casein blotting solution containing 20 μL each of reagent A and B from the kit for 10 min. The membrane was washed three times for 4 min each in 10 mL 1× casein solution, followed by equilibration in 10 mL 0.1M Tris buffer, pH 9.5, for 5 min. The excess buffer was removed and the blot surface was incubated in 3 mL DuoLux chemiluminescent substrate for 5 min under subdued light. Briefly rinse the blot in 0.1 M Tris buffer, pH 9.5, and remove the excess buffer by touching the edge of the blot to absorbent paper. The image was obtained by exposing the blot to the Kodak BioMax Light Film.

T1 sequence (P68036 whole entry): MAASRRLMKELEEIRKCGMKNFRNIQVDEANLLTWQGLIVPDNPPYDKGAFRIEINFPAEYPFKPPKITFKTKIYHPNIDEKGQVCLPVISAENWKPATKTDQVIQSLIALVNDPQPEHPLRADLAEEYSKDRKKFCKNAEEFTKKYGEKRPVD

Row | extent of tag transfer from E1-1 to E2 ([2]; tag concentration reduced to 50 μM, E1 and E2 present) | E1 biotin-adduct formation on withdrawal of ATP ([4]; no ATP in reaction buffer, tag 150 μM (FIG. 6)) | activity in E1 adduct formation ([4]; concentrations as high as 450 μM) | Compound | labeling of proteins in tubulin/parkin complex ([1]; 450 μM) | labeling of tubulin in tubulin/parkin complex (FIG. 8) [1] | biotin labeling of E2 in the absence of E1 ([2]; incubation with E2 alone, no E1) | covalent modification of proteins in fraction II extract [3] | concentration range of concentration-dependent biotin labeling of 55 KDa protein (tubulin) ([1]; 10 μM ATP, FIG. 2a) | biotin labeling efficiency of parkin-mediated tubulin modification versus recognition sequence [1] | formation of E1-biotin tag adduct (E1-1 thioester) ([4]; incubated with E1 for 5 min, non-reducing ATP-supplemented buffer, streptavidin blot)
1 |  |  |  | O=C(O)CCCCCNC(=O)CCCC[C@@H]1SC[C@@H]2NC(=O)N[C@@H]21 [long-chain biotin, biotinylaminohexanonic acid, reference compound] | no labeling of any protein | could not label the tubulins |  |  |  |  | 
2 | undetectable level | aborted the biotin-adduct formation |  | tag 1: biotin linked through aminohexanoic acid linker to recognition sequence LRLRGG (SEQ ID NO: 1) (HELM PEPTIDE1{[O=C1N[C@H]2[C@H](CS[C@H]2CCCCC(=O)[*:2])N1].[O=C(CCCCCN[*:1])[*:2]].L.R.L.R.G.G}$$$$V2.0; SMILES CC(C)C[C@H](NC(=O)CCCCCNC(=O)CCCC[C@@H]1SC[C@@H]2NC(=O)N[C@@H]21)C(=O)N[C@@H](CCCNC(=N)N)C(=O)N[C@@H](CC(C)C)C(=O)N[C@@H](CCCNC(=N)N)C(=O)NCC(=O)NCC(=O)O) |  | Robust labeling | did not give rise to the biotin-labeled E2 | concentration-dependent covalent modification of a large number of proteins | 17 to 450 µM | highest labeling efficacy | biotin-containing protein bands with the size matching that of E1 were detected
3 |  |  | almost no activity | tag 2: biotin linked through aminohexanoic acid linker to sequence LALRGG (SEQ ID NO: 2) (HELM PEPTIDE1{[O=C1N[C@H]2[C@H](CS[C@H]2CCCCC(=O)[*:2])N1].[O=C(CCCCCN[*:1])[*:2]].L.A.L.R.G.G}$$$$V2.0; SMILES CC(C)C[C@H](NC(=O)CCCCCNC(=O)CCCC[C@@H]1SC[C@@H]2NC(=O)N[C@@H]21)C(=O)N[C@@H](C)C(=O)N[C@@H](CC(C)C)C(=O)N[C@@H](CCCNC(=N)N)C(=O)NCC(=O)NCC(=O)O) |  |  |  |  |  | decreased biotin labeling | 
